This is an account of results in ChEMBL document CHEMBL3751755, “Developing steroidal aromatase inhibitors-an effective armament to win the battle against breast cancer” (Eur J Med Chem, 2015).

For one data set, the target named is T1, Aromatase (Homo sapiens, UniProt P11511).
T1 sequence (P11511 whole entry): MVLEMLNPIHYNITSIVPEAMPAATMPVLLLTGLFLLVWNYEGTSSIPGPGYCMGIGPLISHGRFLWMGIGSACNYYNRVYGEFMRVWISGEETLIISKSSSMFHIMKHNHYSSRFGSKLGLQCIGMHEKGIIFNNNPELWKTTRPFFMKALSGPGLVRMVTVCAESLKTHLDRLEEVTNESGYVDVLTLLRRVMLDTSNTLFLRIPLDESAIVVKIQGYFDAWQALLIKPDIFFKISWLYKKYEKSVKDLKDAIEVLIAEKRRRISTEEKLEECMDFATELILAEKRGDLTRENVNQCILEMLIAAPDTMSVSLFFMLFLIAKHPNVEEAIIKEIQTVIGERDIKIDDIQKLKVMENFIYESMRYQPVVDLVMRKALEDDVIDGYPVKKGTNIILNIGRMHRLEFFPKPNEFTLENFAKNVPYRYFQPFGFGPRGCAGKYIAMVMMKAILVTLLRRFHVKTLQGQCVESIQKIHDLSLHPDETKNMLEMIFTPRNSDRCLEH
Settings: not given
For the compound `C[C@]12CC[C@H]3[C@@H](C(=O)[C@H]4O[C@]45C(=O)CCC[C@]35C=O)[C@@H]1CCC2=O`, affinity was put at a Ki of 5000 nM.
For `CCCCCCC1=C[C@@H]2[C@H](CC[C@]3(C)C(=O)CC[C@@H]23)[C@@]2(C)CCC(=O)C=C12`, the Ki (in general, a measure of affinity in units of concentration, obtained from inhibition or displacement) came out at 17 nM.
On the same count and under the same terms, then `C[C@]12CC[C@H]3[C@@H](CC[C@]45O[C@H]4C(=O)CC[C@]35C)[C@@H]1CCC2=O`, with 5000 nM; and `C[C@]12CC[C@@H]3c4cc(F)c(O)cc4CC[C@H]3[C@@H]1CC[C@@H]2O`, with 100 nM.
The same measure, in the same setting: the figure for `CC[C@H]1C[C@@H]2[C@H](CC[C@]3(C)C(=O)CC[C@@H]23)[C@@]2(C)CCCC=C12` is 12 nM; for `CCC1=C[C@@H]2[C@H](CC[C@]3(C)C(=O)CC[C@@H]23)[C@@]2(C)C=CC(=O)C=C12` it is 2.5 nM.
Still for that read-out and setting: the figure for `C[C@]12CC[C@@H]3c4ccc(O)cc4[C@@H](Cc4ccccc4)C[C@H]3[C@@H]1CC[C@@H]2O` is 100 nM; for `CCCCC[C@H]1C[C@@H]2[C@H](CC[C@]3(C)C(=O)CC[C@@H]23)[C@@]2(C)CCC(=O)C=C12` it is 9.3 nM; for `C[C@]12C=CC(=O)C=C1C=C[C@@H]1[C@@H]2CC[C@]2(C)C(=O)CC[C@@H]12` it is 2.5 nM.
Compound `C[C@]12C=CC(=O)C=C1C(c1ccc(OS(N)(=O)=O)cc1)=C[C@@H]1[C@@H]2CC[C@]2(C)C(=O)CC[C@@H]12` displayed a Ki of 56 nM.
Still for that read-out and setting: the figure for `C[C@]12CC[C@@H]3c4ccc(O)cc4[C@@H](CCCc4ccccc4)C[C@H]3[C@@H]1CC[C@@H]2O` is 100 nM; for `CC1(C)C[C@@]2(C)C(=CC1=O)[C@H](Br)C[C@@H]1[C@@H]2CC[C@]2(C)C(=O)CC[C@@H]12` it is 10 nM.
Same read-out and setting: the figure for `C[C@]12CC[C@@H]3c4cc(Cl)c(O)cc4CC[C@H]3[C@@H]1CCC2=O` is 100 nM.

The target of a further data set is T1, Aromatase.
Settings: not given
This is another data set of the same source.
`C[C@]12CCC(=O)C(OCc3ccccc3)=C1CC[C@@H]1[C@@H]2CC[C@]2(C)C(=O)CC[C@@H]12` yielded a Ki of 38 nM.
On the same count and under the same terms, the figure for `C[C@]12CCC(=O)C=C1[C@@H]1[C@H]([C@@H]3[C@@H]2CC[C@]2(C)C(=O)CC[C@@H]32)C1(F)F` is 5 nM; for `C#C[C@H](OC(C)=O)[C@]12CCC(=O)C=C1C(=O)C[C@@H]1[C@@H]2CC[C@]2(C)C(=O)CC[C@@H]12` it is 67000 nM; for `C[C@]12CCC(=O)C=C1C[C@H](Cc1ccccc1)[C@@H]1[C@@H]2CC[C@]2(C)C(=O)CC[C@@H]12` it is 36 nM.
Same read-out and setting: then `C[C@]12C=CC(=O)C=C1C[C@@H](CCc1ccc([N+](=O)[O-])cc1)[C@@H]1[C@@H]2CC[C@]2(C)C(=O)CC[C@@H]12`, with 7 nM; and `C[C@]12C=CC(=O)C=C1C[C@@H](CCc1ccccc1)[C@@H]1[C@@H]2CC[C@]2(C)C(=O)CC[C@@H]12`, with 7 nM.
The same measure, in the same setting: the figure for `C[C@]12C=CC(=O)C=C1C[C@@H](CCc1ccc(N)cc1)[C@@H]1[C@@H]2CC[C@]2(C)C(=O)CC[C@@H]12` is 7 nM; for `CCSC1=C2CC[C@@H]3[C@H](CC[C@]4(C)C(=O)CC[C@@H]34)[C@@]2(C)CCC1=O` it is 36 nM; for `C[C@]12CCCC=C1CC[C@@H]1[C@@H]2CC[C@]2(C)C(=O)[C@@H](Br)C[C@@H]12` it is 455 nM.
Compound `C[C@]12C=CC(=O)C=C1C[C@@H](CCCc1ccccc1)[C@@H]1[C@@H]2CC[C@]2(C)C(=O)CC[C@@H]12` showed an inhibitory constant (Ki) of 7 nM.
Still for that read-out and setting: the figure for `CSC1=C2CC[C@@H]3[C@H](CC[C@]4(C)C(=O)CC[C@@H]34)[C@@]2(C)CCC1=O` is 36 nM; for `C[C@]12CC[C@H]3[C@@H](CCC4=CCCC[C@@]43CO)[C@@H]1CC[C@@H]2O` it is 170 nM; for `C[C@]12CCC(=O)C=C1C=C(c1ccccc1)[C@@H]1[C@@H]2CC[C@]2(C)C(=O)CC[C@@H]12` it is 1420 nM.
On the same count and under the same terms, then `C[C@]12CC[C@H]3[C@@H](CCC4=CCCC[C@@]43C(F)F)[C@@H]1CCC2=O`, with 170 nM; and `C[C@]12C=CC(=O)C=C1C[C@@H](Cc1ccccc1)[C@@H]1[C@@H]2CC[C@]2(C)C(=O)CC[C@@H]12`, with 7 nM; and `CCCSC1=C2CC[C@@H]3[C@H](CC[C@]4(C)C(=O)CC[C@@H]34)[C@@]2(C)CCC1=O`, with 36 nM.
Still for that read-out and setting: then `C[C@]12CCCC=C1[C@@H]1[C@H]([C@@H]3[C@@H]2CC[C@]2(C)C(=O)CC[C@@H]32)C1(F)F`, with 5 nM.
`C[C@]12CCC(=O)C=C1C[C@@H](CCc1ccccc1)[C@@H]1[C@@H]2CC[C@]2(C)C(=O)CC[C@@H]12` yielded a Ki of 13.1 nM.
On the same count and under the same terms, then `CC(=O)SC1=C2CC[C@@H]3[C@H](CC[C@]4(C)C(=O)CC[C@@H]34)[C@@]2(C)CCC1=O`, with 36 nM; and `C[C@]12CC[C@H]3[C@@H]([C@H](Cc4ccccc4)CC4=CC(=O)CC[C@@]43C)[C@@H]1CC[C@@H]2O`, with 36 nM.
Regarding `C[C@]12CCC(=O)C=C1C=C(Cc1ccccc1)[C@@H]1[C@@H]2CC[C@]2(C)C(=O)CC[C@@H]12`, the Ki came to 60.9 nM.
On the same count and under the same terms, then `C[C@]12CC[C@H]3[C@@H]([C@H]4[C@@H](C5=CCCC[C@@]53C)C4(F)F)[C@@H]1CC[C@@H]2O`, with 5 nM; and `C[C@]12CCCC=C1CC[C@@H]1[C@@H]2CC[C@]2(C)C(=O)[C@H](Br)C[C@@H]12`, with 228 nM; and `C#C[C@@H](OC(C)=O)[C@@]12CCC(=O)C=C1C(=O)C[C@@H]1[C@@H]2CC[C@]2(C)C(=O)CC[C@@H]12`, with 75000 nM.
The same measure, in the same setting: the figure for `C[C@]12C=CC(=O)C=C1C[C@@H](CCCc1ccc([N+](=O)[O-])cc1)[C@@H]1[C@@H]2CC[C@]2(C)C(=O)CC[C@@H]12` is 7 nM.
`C[C@]12CCC(=O)C=C1C[C@@H](Cc1ccccc1)[C@@H]1[C@@H]2CC[C@]2(C)C(=O)CC[C@@H]12` came in with a Ki of 18.9 nM.
On the same count and under the same terms, then `C[C@]12CCC(=O)C=C1C[C@H](CCc1ccccc1)[C@@H]1[C@@H]2CC[C@]2(C)C(=O)CC[C@@H]12`, with 36 nM; and `C[C@]12CCC(=O)C=C1C=C(CCc1ccccc1)[C@@H]1[C@@H]2CC[C@]2(C)C(=O)CC[C@@H]12`, with 60.9 nM.

The next data set addresses T1, Aromatase. As to the kind of experiment: Inhibition of aromatase (unknown origin). Also noted: inhibition (INH): concentration or dose not given beside the values.
Settings: not given
`CC1(C)C[C@@]2(C)C(=CC1=O)C(=O)C[C@@H]1[C@@H]2CC[C@]2(C)C(=O)CC[C@@H]12` showed a Ki of 25 nM.
On the same count and under the same terms, then `C[C@]12CC[C@H]3[C@@H](CCC4=CC(=O)CC[C@@]43[C@@H]3CN3)[C@@H]1CCC2=O`, with 3.4 nM; and `CC1(C)C[C@@]2(C)C(=C(O)C1=O)C(=O)C[C@@H]1[C@@H]2CC[C@]2(C)C(=O)CC[C@@H]12`, with 40 nM.
With `CC(=O)O[C@H]1[C@@H]2[C@H](CC[C@]3(C)C(=O)CC[C@@H]23)[C@@]2(C)CCC(=O)C=C2[C@@H]1N=[N+]=[N-]`, half-maximal inhibition (IC50) required 400 nM.

The data set is the same for the next values; noted with them: human.
For the compound `C[C@]12CC[C@H]3[C@@H](CC[C@H]4C[C@@]5(O)C[C@H]6[C@H](O5)[C@]436)[C@@H]1CCC2=O`, the “inhibition (INH)” value worked out at 40%.
Take `CC(=O)O[C@@H]1[C@@H]2CC(=O)C[C@@H]3CC[C@@H]4[C@H](CC[C@]5(C)C(=O)CC[C@@H]45)[C@@]312`: the “inhibition (INH)” value turned out to be 40%.
